The term IC50 denotes the point on the concentration scale where inhibition reaches its midpoint.

Data on 23 compounds can be found in patent US20230087118A1, “IMIDAZO[1,2-a][sequence] DERIVATIVES AND THEIR USE IN THE TREATMENT OF DISEASE” (priority 2019, published 2023).

Structures can show the parent of a compound that is named as a salt.

In the first experiment the target is T1, IRAK4 (Homo sapiens, UniProt Q9NWZ3).
T1 sequence (Q9NWZ3 1-460): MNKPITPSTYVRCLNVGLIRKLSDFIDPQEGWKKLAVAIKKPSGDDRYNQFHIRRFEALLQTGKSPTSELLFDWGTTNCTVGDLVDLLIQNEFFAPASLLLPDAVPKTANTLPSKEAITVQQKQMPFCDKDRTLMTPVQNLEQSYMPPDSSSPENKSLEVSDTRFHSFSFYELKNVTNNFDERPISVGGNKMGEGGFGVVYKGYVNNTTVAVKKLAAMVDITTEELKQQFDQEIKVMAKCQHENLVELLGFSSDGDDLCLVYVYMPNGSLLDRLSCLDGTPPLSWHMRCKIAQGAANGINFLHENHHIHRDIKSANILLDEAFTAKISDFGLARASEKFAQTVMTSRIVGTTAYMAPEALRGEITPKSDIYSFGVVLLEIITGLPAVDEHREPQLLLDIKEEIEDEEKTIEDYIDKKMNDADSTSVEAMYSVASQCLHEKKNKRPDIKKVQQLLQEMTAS
As to the kind of experiment: biochemical.
Details: not given
The compound `COc1ncccc1NC(=O)c1cn2cc(C3CCOCC3)nc2c(OC)n1` [Example 208] came in with an IC50 of 0.0209 µM.

`CCOc1nc(C(=O)Nc2cccnc2OC)cn2cc(C3CCOCC3)nc12` [Example 209] yielded an IC50 of 0.0057 µM.

Take `COc1nc(C(=O)Nc2cccc3c2CCC3)cn2cc(C3CCOCC3)nc12` [Example 210]: the IC50 came out at 0.302 µM.

`CCOc1nc(C(=O)Nc2cccc3c2CCC3)cn2cc(C3CCOCC3)nc12` [Example 211] returned an IC50 of 0.0116 µM.

In turn, `Cc1nc(C(=O)Nc2cccc(C(F)F)n2)cn2cc(C3CCOCC3)nc12` [Example 213] gave an IC50 of 0.0607 µM.

`O=C(Nc1cccc(C(F)F)n1)c1cc(Cl)c2nc(C3CCOCC3)cn2c1` [Example 214] registered an IC50 of 0.0715 µM.

On to `CC(C)Oc1cc2nc(C34CC(C3)C4)cn2cc1C(=O)Nc1cccc(C(F)F)n1` [Example 215], for which the IC50 was 0.0013 µM.

`COc1ncccc1NC(=O)c1cn2cc(C34COC(C)(C3)C4)nc2cc1OC(C)C` [Example 216] displayed an IC50 of 0.0005 µM.

Turning to `CC(C)Oc1c(C(=O)Nc2cccc(C(F)F)n2)cn2cc(C34COC(C)(C3)C4)nc2c1F` [Example 217], the IC50 was 0.0017 µM.

In turn, `CC(C)Oc1cc2nc(C34COC(C)(C3)C4)cn2cc1C(=O)Nc1ccccn1` [Example 219] came in with an IC50 of 0.0069 µM.

For the compound `CC(C)Oc1cc2nccn2cc1C(=O)Nc1cccc(C(F)F)n1` [Example 220], the IC50 is 0.0115 µM.

For the compound `CC(C)Oc1cc2nc(C34COC(C)(C3)C4)cn2cc1C(=O)Nc1cccc2ccnn12` [Example 221], the 50% inhibitory concentration (IC50) was 0.0006 µM.

In the case of `CC(C)Oc1cc2nc(C34COC(C)(C3)C4)cn2cc1C(=O)Nc1cccnc1OC(F)F` [Example 222], the IC50 came to 0.0081 µM.

For the compound `CCOc1nc(C(=O)Nc2cccc(C(F)F)n2)cn2cc(C3CCCOC3)nc12` (centres unmarked) [Example 223], half-maximal inhibition (IC50) was put at 0.0022 µM.

Consider `CCOc1nc(C(=O)Nc2cccnc2OC)cn2cc(C3CCCOC3)nc12` (centres unmarked) [Example 224], for which half-maximal inhibition (IC50) required 0.0086 µM.

The compound `CCOc1nc(C(=O)Nc2cccnc2OC)cn2cc(C34COC(C)(C3)C4)nc12` [Example 225] showed an IC50 of 0.0052 µM.

Consider `CCOc1nc(C(=O)Nc2cccc(C(F)F)n2)cn2cc(C34COC(C)(C3)C4)nc12` [Example 226], for which the IC50 is 0.0024 µM.

The compound `COC12CC(c3cn4cc(C(=O)Nc5cccc(C(F)F)n5)c(OC(C)C)cc4n3)(C1)C2` [Example 227] came in with a half-maximal inhibitory concentration (IC50) of 0.0003 µM.

The same experiment, now with this note: IRAK4 Biochemical Assay (1 mM ATP, 2 h) IC50 (μM), 1 mM ATP, 2 h, 100 pM IRAK4.
Turning to `COc1nc(C(=O)Nc2cccc3c2OCCC3)cn2cc(C3CCOCC3)nc12` [Example 205, N-chroman-8-yl-8-methoxy-2-tetrahydropyran-4-yl-imidazo[1,2-a]pyrazine-6-carboxamide trifluoroacetate], the IC50 was 0.0341 µM.

The compound `COc1nc(C(=O)Nc2cccc(C(F)F)n2)cn2cc(C3CCOCC3)nc12` [Example 206, N-[6-(difluoromethyl)-2-pyridyl]-8-methoxy-2-tetrahydropyran-4-ylimidazo[1,2-a]pyrazine-6-carboxamide trifluoroacetate] showed an IC50 of 0.0128 µM.

For `CCOc1nc(C(=O)Nc2cccc(C(F)F)n2)cn2cc(C3CCOCC3)nc12` [Example 207, N-[6-(difluoromethyl)-2-pyridyl]-8-ethoxy-2-tetrahydropyran-4-ylimidazo[1,2-a]pyrazine-6-carboxamide trifluoroacetate], it took 0.0147 µM to reach half-maximal inhibition (IC50).

`COc1cc2nc(C3CCOCC3)cn2cc1C(=O)Nc1cc(F)cn(C)c1=O` [Example 212, N-(5-fluoro-1-methyl-2-oxo-1,2-dihydropyridin-3-yl)-7-methoxy-2-(tetrahydro-2H-pyran-4-yl)imidazo[1,2-a]pyridine-6-carboxamide trifluoroacetate] gave an IC50 of 0.016 µM.

Consider `CC(C)Oc1nc2nc(C34COC(C)(C3)C4)cn2cc1C(=O)Nc1cccc(C(F)F)n1` [Example 218], for which 0.0002 µM corresponded to half-maximal inhibition (IC50).
